PMC12368656 (2025)

What was measured:
[1] = system: 3′-methylene blue- and 5′-thiol-modified oligonucleotide with affinity toward vancomycin (aptamer probe) (DNA, aptamer) CGAGGGTACCGCAATAGTACTTATTGTTCGCCTATTGTGGGTCGG; experiment: electrochemical aptamer-based sensor, SWV titration, planar gold electrode; conditions: Na+ (0.5 wt % NaCl); artificial sweat (0.1 wt % urea, 0.1 wt % lactic acid), pH 6.5, room temperature; apparent
[2] = system: 3′-methylene blue- and 5′-thiol-modified oligonucleotide with affinity toward vancomycin (aptamer probe) (DNA, aptamer) CGAGGGTACCGCAATAGTACTTATTGTTCGCCTATTGTGGGTCGG; experiment: electrochemical aptamer-based sensor, SWV titration, gold-coated microstructured electrode (MSE); conditions: Na+ (0.5 wt % NaCl); artificial sweat (0.1 wt % urea, 0.1 wt % lactic acid), pH 6.5, room temperature; apparent

KD [1]: 26.3 ± 3.3 µM
KD [2]: 46.6 ± 4.1 µM
SMILES: CN[C@H](CC(C)C)C(=O)N[C@H]1C(=O)N[C@@H](CC(N)=O)C(=O)N[C@H]2C(=O)N[C@H]3C(=O)N[C@H](C(=O)N[C@H](C(=O)O)c4cc(O)cc(O)c4-c4cc3ccc4O)[C@H](O)c3ccc(c(Cl)c3)Oc3cc2cc(c3O[C@@H]2O[C@H](CO)[C@@H](O)[C@H](O)[C@H]2O[C@H]2C[C@](C)(N)[C@H](O)[C@H](C)O2)Oc2ccc(cc2Cl)[C@H]1O
